Measurements from US8445510B2, “Fused bicyclic kinase inhibitors” (OSI Pharmaceuticals, LLC, priority 2011, dated 2013).
pIC50: −log10 of the molar value.

What was measured:
Type in all cases: cell-based
MKN45 cells = assay: MKN45 cell proliferation assay (CellTiter-Glo); conditions: Homo sapiens, MKN-45, 72 h; MKN45 cell line; 3 days incubation; at least duplicate experiments; read-out: Prolif. IC50
Aurora B = target: T1, Aurora B (Homo sapiens, UniProt Q96GD4); assay: Aurora B cell mechanistic assay (HT-29), phospho-Histone H3 (Ser10) ELISA; conditions: HT-29 cell line; inhibition of phospho-Histone H3 (Ser10); at least duplicate experiments (italicized if single experiment); read-out: Aurora B mech IC50
T1 construct: HT-29 cells grown in complete growth media
Protocol: The cellular activity of the compounds of the present invention against Aurora B may be determined by the following procedure. HT-29 cells grown in complete growth media (McCoy's 5A, 10% FCS, 1% L-glutamine) were plated into wells of a 96 well tissue culture plate (Falcon 3072) at a cell density of 4×10^4 cells/0.09 ml media/well. Cells were subsequently incubated overnight in a 5% CO2 humidified 37° C. incubator. The following day 10 μl of a 10× stock of test compound serially diluted in media was added to the cells and incubated for 1 h at 37° C. at which time Calyculin A (Cell Signaling #9902) was added at a concentration of 100 nM and cells incubated for an additional 30 minutes in a 5% CO2 humidified 37° C. incubator. Media was then aspirated and cells lysed using a Triton based lysis buffer. Lysates were transferred to a pre-coated anti-Histone H3 antibody coated plate supplied by Cell Signaling in their PathScan phospho-Histone H3 (Ser10) ELISA kit (#7155). After an overnight incubation with lysate the ELISA was continued following the manufacturer's instructions. Signal was measured on a Wallac Victor plate reader at 450 nm. DMSO control treated cells served as 100% signal and an Aurora B kinase inhibitor served as 100% inhibition. The percent inhibition of phospho-Histone H3 (Ser10) was expressed as % control. IC50 values were calculated from the percent control data using a standard four-parameter model.
The IC50 values of exemplary compounds of the present invention determined in a Aurora B cell mechanistic assay using the HT-29 cell line according to the procedures described herein in at least duplicate experiments are abbreviated as follows and are shown in Table 4: A, IC50≦0.05 μM; B, 0.05 μM<IC50≦0.2 μM; C, 0.2 μM<IC50≦1 μM; D, IC50>1 μM; ND, not determined. If only data from single experiments are available, the abbreviations are italicized. The Example # of Table 4 corresponds to the compound example number as illustrated in the Examples section.

Karpas-299 cells = assay: Karpas-299 cell proliferation assay (CellTiter-Glo); conditions: Homo sapiens, 72 h; Karpas-299 cell line (NPM-ALK); 3 days incubation; at least duplicate experiments; read-out: Prolif. IC50
RON = target: T2, RON (Homo sapiens, UniProt Q04912); assay: sfRON cell mechanistic assay (HeLa), phosphorylated RON ELISA; conditions: HeLa cells transfected with sfRON; inhibition of phosphorylated RON; four hours incubation; at least duplicate experiments; read-out: sfRON mech IC50
T2 sequence (Q04912 913-1400): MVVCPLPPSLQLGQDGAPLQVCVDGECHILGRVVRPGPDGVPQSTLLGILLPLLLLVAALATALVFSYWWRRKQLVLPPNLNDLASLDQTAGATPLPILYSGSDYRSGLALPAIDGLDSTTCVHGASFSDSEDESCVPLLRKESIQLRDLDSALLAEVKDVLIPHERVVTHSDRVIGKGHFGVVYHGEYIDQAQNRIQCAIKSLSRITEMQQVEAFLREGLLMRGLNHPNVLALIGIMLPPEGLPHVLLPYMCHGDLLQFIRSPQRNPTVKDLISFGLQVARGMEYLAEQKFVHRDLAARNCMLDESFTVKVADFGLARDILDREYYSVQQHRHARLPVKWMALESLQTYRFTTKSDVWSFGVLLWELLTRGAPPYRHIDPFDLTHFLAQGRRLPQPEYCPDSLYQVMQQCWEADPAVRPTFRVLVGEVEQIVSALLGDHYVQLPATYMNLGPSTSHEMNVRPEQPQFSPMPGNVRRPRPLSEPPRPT
Outline: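 HeLa cells transiently transfected with sfRON plasmid, then exposed 4 h at 37 °C to a 6-point compound series (typically 10 μM to 3 nM, 0.5% DMSO). Phospho-RON (pY1238/1239) in lysates measured by sandwich ELISA with luminescence. IC50 from 4-parameter fit of percent-of-DMSO-control data, at least duplicate runs.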

T1 sequence (Q96GD4 whole entry): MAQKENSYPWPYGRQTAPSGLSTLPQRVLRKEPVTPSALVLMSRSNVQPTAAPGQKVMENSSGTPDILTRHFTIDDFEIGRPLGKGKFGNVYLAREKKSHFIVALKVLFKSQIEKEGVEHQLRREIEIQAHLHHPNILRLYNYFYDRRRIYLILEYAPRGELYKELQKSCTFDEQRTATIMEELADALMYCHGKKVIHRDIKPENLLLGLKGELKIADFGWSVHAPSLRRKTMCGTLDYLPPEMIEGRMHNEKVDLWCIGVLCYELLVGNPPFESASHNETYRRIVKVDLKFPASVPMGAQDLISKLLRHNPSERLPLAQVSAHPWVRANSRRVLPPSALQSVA

pIC50 (MKN45 cells) | pIC50 (Aurora B) | pIC50 (Karpas-299 cells) | pIC50 (RON) | SMILES
≥ 7.30 | 6.00 to 6.70 | ≥ 7.30 |  | COc1ccc(F)c(Cl)c1[C@@H](C)c1c[nH]c2ncc(-c3cn(C[C@H](O)CO)nc3C)cc12 [Example 9, (2S)-3-(4-{3-[(1S)-1-(2-Chloro-3-fluoro-6-methoxyphenyl)ethyl]-1H-pyrrolo[2,3-b]pyridin-5-yl}-3-methyl-1H-pyrazol-1-yl)propane-1,2-diol]
< 6.00 | < 6.00 | < 6.00 |  | COc1ccc(F)c(Cl)c1[C@@H](C)c1c[nH]c2ncc(-c3cn(C)nc3C(F)(F)F)cc12 [Example 29, 3-[(1S)-1-(2-Chloro-3-fluoro-6-methoxyphenyl)ethyl]-5-[1-methyl-3-(trifluoromethyl)-1H-pyrazol-4-yl]-1H-pyrrolo[2,3-b]pyridine]
6.00 to 6.70 | < 6.00 | 6.00 to 6.70 |  | COc1ccc(F)c(Cl)c1[C@@H](C)c1c[nH]c2ncc(-c3cn(CC(C)(C)O)nc3C(F)(F)F)cc12 [Example 30, 1-[4-{3-[(1S)-1-(2-Chloro-3-fluoro-6-methoxyphenyl)ethyl]-1H-pyrrolo[2,3-b]pyridin-5-yl}-3-(trifluoromethyl)-1H-pyrazol-1-yl]-2-methylpropan-2-ol]
 | < 6.00 | 6.00 to 6.70 | < 6.00 | COc1ccc(F)c(Cl)c1[C@@H](C)c1c[nH]c2ncc(-c3cnn(C)c3Cl)cc12 [Example 59, 3-[(1S)-1-(2-Chloro-3-fluoro-6-methoxyphenyl)ethyl]-5-(5-chloro-1-methyl-1H-pyrazol-4-yl)-1H-pyrrolo[2,3-b]pyridine]
< 6.00 | < 6.00 | 6.00 to 6.70 |  | Cc1c(-c2cnc3[nH]cc([C@H](C)c4c(OC[C@@H](O)CO)ccc(F)c4Cl)c3c2)cnn1C [Example 68, (2S)-3-(3-Chloro-2-{(1S)-1-[5-(1,5-dimethyl-1H-pyrazol-4-yl)-1H-pyrrolo[2,3-b]pyridin-3-yl]ethyl}-4-fluorophenoxy)propane-1,2-diol]
≥ 7.30 | < 6.00 | ≥ 7.30 |  | CCOc1ccc(F)c(Cl)c1[C@@H](C)c1c[nH]c2ncc(-c3c(C)nn(C[C@@H](O)CO)c3C)cc12 [Example 101, (2R)-3-(4-{3-[(1S)-1-(2-Chloro-6-ethoxy-3-fluorophenyl)ethyl]-1H-pyrrolo[2,3-b]pyridin-5-yl}-3,5-dimethyl-1H-pyrazol-1-yl)propane-1,2-diol]
< 6.00 | < 6.00 | 6.00 to 6.70 |  | Cc1c(-c2cnc3[nH]cc([C@H](C)c4c(OC[C@H](O)CO)ccc(F)c4Cl)c3c2)cnn1C [Example 127, (2R)-3-(3-Chloro-2-{(1S)-1-[5-(1,5-dimethyl-1H-pyrazol-4-yl)-1H-pyrrolo[2,3-b]pyridin-3-yl]ethyl}-4-fluorophenoxy)propane-1,2-diol]
